Measured values published in patent publication US20210299111A1, “EIF4A INHIBITOR COMBINATIONS” (eFFECTOR Therapeutics Inc., priority 2020, published 2021).

Assays:
[1] = test system: MDA-MB-361 ER^+ breast cancer cells; assay: MDA-MB-361 xenograft tumor growth in athymic mice; assay type: in vivo; conditions: eFT226 0.1 mg/kg intravenously Q4D, palbociclib 30 mg/kg orally QD, 18 days, tumor volume followed up to 45 days after last dose, FIG. 3
Procedure: The in vivo effect of a combination treatment using eFT226 and palbociclib on the tumor growth of MDA-MB-361 ER^+ breast cancer cells was tested. Xenograft experiments were performed by implanting MDA-MB-361 ER^+ breast cancer cells into athymic mice. Athymic mice implanted with MDA-MB-361 tumor cells were randomized and size-matched into vehicle and treatment groups when the mean tumor size reached ˜300 mm^3. The mice were then treated with (1) control vehicle; (2) 0.1 mg/kg of eFT226 administered intravenously every 4 days (Q4D) for a period of 18 days; (3) 30 mg/kg of palbociclib administered orally every day (QD) for a period of 18 days; or (4) 0.1 mg/kg of eFT226 administered intravenously Q4D and 30 mg/kg of palbociclib administered orally QD for a period of 18 days. The effect on the above treatments on tumor volume was monitored. Tumor volume was measured periodically for up to 45 days after the last dose of treatment was administered. […] Administration of either eFT226 or palbociclib alone led to a inhibition of tumor growth for about 22 days after the treatment was stopped. […] It is unknown what factors determine the equilibrium between the CDK4/6 inhibitor-sensitive monomeric CDK4 and the drug resistant p27-CDK4-cyclin D1 trimer.

[2] = test system: DLD1 (KRAS G13D) colorectal cancer cells; assay: Cell viability (crystal violet) in KRAS mutant DLD1 cells; assay type: cell-based; conditions: Palbociclib 100 nM, eFT226 10 or 50 nM, 24 hours, then Palbociclib alone for 13 days, FIG. 5
Procedure: (§1) SW620 (KRAS G12V) colorectal cancer cells (FIG. 1), DLD1 (KRAS G13D) colorectal cancer cells (FIG. 2), and CORL23 (KRAS G12V) NSCLC cells (FIG. 3) were seeded at 500-1,000 cells/well in 6-well plates and treated with DMSO control (“DMSO”), Palbociclib (100 nM) (“Palbo”), eFT226 (10 or 50 nM), or the combination of the two drugs (“Palbo+eFT226). After 24 hours of treatment, cells were rinsed and treatment with Palbociclib alone was continued for an additional 13 days. At the end of treatment, cells were rinsed with phosphate buffered saline (PBS) and stained with crystal violet.

[3] = test system: SW620 (KRAS G12V) colorectal cancer cells; assay: Cell viability (crystal violet) in KRAS mutant SW620 cells; assay type: cell-based; conditions: Palbociclib 100 nM, eFT226 10 or 50 nM, 24 hours, then Palbociclib alone for 13 days, FIG. 4
Procedure: as §1

[4] = test system: MDA-MB-361 ER^+ breast cancer cells; assay: Cell viability of MDA-MB-361 cells, single agents and combination; assay type: cell-based; conditions: Palbociclib 40 nM, eFT226 45 nM, 24 hours, then Palbociclib only for 6 days, versus untreated control, FIG. 2
Procedure: MDA-MB-361 ER^+ breast cancer cells were seeded at 10,000 cells/well in 24-well plates and treated with DMSO (“control”), Palbociclib (40 nM)(“Palbo”), eFT226 (45 nM) (“eFT226”), or the combination of the two drugs (“Combo”). After 24 hours of treatment, cells were rinsed and treatment with Palbociclib only was continued for 6 days, at which time cell viability was determined. Cells were counted on day 0 and day 6, when the experiment was ended.

cyclin D1 = assay: Expression of cyclin D1 in MDA-MB-361 ER+ breast cancer cells treated with eFT226; assay type: cell-based; conditions: MDA-MB-361 cells, 24 hours, FIG. 1
Procedure: (§2) The effect of eFT226 on key cell cycle regulators in MDA-MB-361 ER^+ breast cancer cells was tested. MDA-MB-361 ER^+ breast cancer cells were treated with varying concentrations of eFT226 (10 nM, 30 nM, and 100 nM) for 24 hours, and analyzed for the expression of the relevant key cell cycle regulators, cyclin D1, CDK4, and phosphorylated retinoblastoma (Rb) protein.

[5] = test system: CORL23 (KRAS G12V) NSCLC cells; assay: Cell viability (crystal violet) in KRAS mutant CORL23 cells; assay type: cell-based; conditions: Palbociclib 100 nM, eFT226 10 or 50 nM, 24 hours, then Palbociclib alone for 13 days, FIG. 6
Procedure: as §1

[6] = test system: phosphorylated retinoblastoma (Rb) protein; assay: Phosphorylated Rb protein in MDA-MB-361 ER+ breast cancer cells treated with eFT226; assay type: cell-based; conditions: MDA-MB-361 cells; eFT226 10 nM, 30 nM, 100 nM; 24 hours; FIG. 1
Procedure: as §2

CDK4 = assay: Expression of CDK4 in MDA-MB-361 ER+ breast cancer cells treated with eFT226; assay type: cell-based; conditions: MDA-MB-361 cells; eFT226 10 nM, 30 nM, 100 nM; 24 hours; FIG. 1
Procedure: as §2

SMILES	duration of inhibition of tumor growth after the last dose [1]	cell viability [2]	cell viability [3]	cell viability [4]	decrease of Cyclin D1 protein levels compared with Fulvestrant (cyclin D1)	cyclin D1 expression (cyclin D1; eFT226 10 nM, 30 nM, 100 nM)	cell viability [5]	phosphorylated Rb protein [6]	CDK4 expression (CDK4)
COc1cc2c(c(OC)n1)[C@]1(O)[C@H](O)[C@H](CN(C)C)[C@@H](c3ccccc3)[C@]1(c1ccc(C#N)cc1)O2 [eFT226]	about 22 days	reduced	reduced	reduced	more effective than Fulvestrant (Fulv) in decreasing Cyclin D1 protein levels	suppression of cyclin D1 and CDK4 expression was observed in the cell line at all concentrations	reduced	concomitant decrease in phosphorylated Rb protein	suppression of cyclin D1 and CDK4 expression was observed in the cell line at all concentrations
CC(=O)c1c(C)c2cnc(Nc3ccc(N4CCNCC4)cn3)nc2n(C2CCCC2)c1=O [palbociclib, reference compound]	about 22 days								
